Experimental data from article PMC9014410, “Discovery of V-0219: A Small-Molecule Positive Allosteric Modulator of the Glucagon-Like Peptide-1 Receptor toward Oral Treatment for “Diabesity”” (Journal of Medicinal Chemistry, 2022).

target: hGLP-1R (Homo sapiens, UniProt P43220); test: cAMP accumulation in HEK-293 cells expressing hGLP-1R (HEK-GLP-1 cells); type: cell-based; conditions: HEK293, read-out: Potentiation of GLP-1 Emax at 10 ?M in a cAMP assay (%); 10 ?M compound (supplementary csv)
Experimental: After this time the culture medium was replaced by 20 μL fresh Opti-MEM containing 500 μM IBMX and 100 μM K579 and incubated with gentle stirring for 10 min at rt. […] Concentration-response curves were fitted to a 4-parameter logistic equation by using GraphPad Prism 2.1 software.

Sequence of hGLP-1R (P43220 24-463): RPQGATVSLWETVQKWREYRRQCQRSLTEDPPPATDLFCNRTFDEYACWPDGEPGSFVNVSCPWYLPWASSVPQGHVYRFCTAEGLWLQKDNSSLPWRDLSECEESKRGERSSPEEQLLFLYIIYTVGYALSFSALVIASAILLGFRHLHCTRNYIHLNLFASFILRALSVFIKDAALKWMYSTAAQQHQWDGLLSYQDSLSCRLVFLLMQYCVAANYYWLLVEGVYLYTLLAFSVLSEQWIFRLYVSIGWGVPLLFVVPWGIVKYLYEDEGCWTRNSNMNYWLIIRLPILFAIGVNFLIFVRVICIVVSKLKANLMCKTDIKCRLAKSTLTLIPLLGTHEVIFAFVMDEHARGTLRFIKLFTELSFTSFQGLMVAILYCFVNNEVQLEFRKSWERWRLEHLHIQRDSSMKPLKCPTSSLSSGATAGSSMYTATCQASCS

Emax, < 30%:
CS(=O)(=O)NC1CCN(Cc2nc(-c3ccc(C(F)(F)F)cc3)no2)CC1 [S1], CCCS(=O)(=O)NC1CCN(Cc2nc(-c3ccc(C(F)(F)F)cc3)no2)CC1 [S2], O=S(=O)(Cc1ccccc1)NC1CCN(Cc2nc(-c3ccc(C(F)(F)F)cc3)no2)CC1 [S3], CC(=O)c1cccc(S(=O)(=O)NC2CCN(Cc3nc(-c4ccc(C(F)(F)F)cc4)no3)CC2)c1 [S4], O=[N+]([O-])c1ccccc1S(=O)(=O)NC1CCN(Cc2nc(-c3ccc(C(F)(F)F)cc3)no2)CC1 [S5], O=[N+]([O-])c1ccc(S(=O)(=O)NC2CCN(Cc3nc(-c4ccc(C(F)(F)F)cc4)no3)CC2)cc1 [S6], N#Cc1ccccc1S(=O)(=O)NC1CCN(Cc2nc(-c3ccc(C(F)(F)F)cc3)no2)CC1 [S7], N#Cc1cccc(S(=O)(=O)NC2CCN(Cc3nc(-c4ccc(C(F)(F)F)cc4)no3)CC2)c1 [S8], N#Cc1ccc(S(=O)(=O)NC2CCN(Cc3nc(-c4ccc(C(F)(F)F)cc4)no3)CC2)cc1 [S9], O=S(=O)(NC1CCN(Cc2nc(-c3ccc(C(F)(F)F)cc3)no2)CC1)c1cccc(Cl)c1 [S10], O=S(=O)(NC1CCN(Cc2nc(-c3ccc(C(F)(F)F)cc3)no2)CC1)c1ccc(Cl)cc1 [S11], O=S(=O)(NC1CCN(Cc2nc(-c3ccc(C(F)(F)F)cc3)no2)CC1)c1ccccc1F [S12], O=S(=O)(NC1CCN(Cc2nc(-c3ccc(C(F)(F)F)cc3)no2)CC1)c1cccc(F)c1 [S13], O=S(=O)(NC1CCN(Cc2nc(-c3ccc(C(F)(F)F)cc3)no2)CC1)c1ccc(F)cc1 [S14], Cc1ccccc1S(=O)(=O)NC1CCN(Cc2nc(-c3ccc(C(F)(F)F)cc3)no2)CC1 [S15], O=S(=O)(NC1CCN(Cc2nc(-c3ccc(C(F)(F)F)cc3)no2)CC1)c1ccc(C(F)(F)F)cc1 [S16], O=S(=O)(NC1CCN(Cc2nc(-c3ccc(C(F)(F)F)cc3)no2)CC1)c1ccc(OC(F)(F)F)cc1 [S17], COc1ccc(Br)cc1S(=O)(=O)NC1CCN(Cc2nc(-c3ccc(C(F)(F)F)cc3)no2)CC1 [S18], Cc1ccc([N+](=O)[O-])cc1S(=O)(=O)NC1CCN(Cc2nc(-c3ccc(C(F)(F)F)cc3)no2)CC1 [S19], CS(=O)(=O)NCC1CCN(Cc2nc(-c3ccc(C(F)(F)F)cc3)no2)CC1 [S20], CCCS(=O)(=O)NCC1CCN(Cc2nc(-c3ccc(C(F)(F)F)cc3)no2)CC1 [S21], O=S(=O)(Cc1ccccc1)NCC1CCN(Cc2nc(-c3ccc(C(F)(F)F)cc3)no2)CC1 [S22], CC(=O)c1cccc(S(=O)(=O)NCC2CCN(Cc3nc(-c4ccc(C(F)(F)F)cc4)no3)CC2)c1 [S23], O=[N+]([O-])c1ccccc1S(=O)(=O)NCC1CCN(Cc2nc(-c3ccc(C(F)(F)F)cc3)no2)CC1 [S24], N#Cc1ccccc1S(=O)(=O)NCC1CCN(Cc2nc(-c3ccc(C(F)(F)F)cc3)no2)CC1 [S25], N#Cc1cccc(S(=O)(=O)NCC2CCN(Cc3nc(-c4ccc(C(F)(F)F)cc4)no3)CC2)c1 [S26], N#Cc1ccc(S(=O)(=O)NCC2CCN(Cc3nc(-c4ccc(C(F)(F)F)cc4)no3)CC2)cc1 [S27], O=S(=O)(NCC1CCN(Cc2nc(-c3ccc(C(F)(F)F)cc3)no2)CC1)c1ccccc1Cl [S28], O=S(=O)(NCC1CCN(Cc2nc(-c3ccc(C(F)(F)F)cc3)no2)CC1)c1cccc(Cl)c1 [S29], O=S(=O)(NCC1CCN(Cc2nc(-c3ccc(C(F)(F)F)cc3)no2)CC1)c1ccc(Cl)cc1 [S30], O=S(=O)(NCC1CCN(Cc2nc(-c3ccc(C(F)(F)F)cc3)no2)CC1)c1cccc(F)c1 [S31], O=S(=O)(NCC1CCN(Cc2nc(-c3ccc(C(F)(F)F)cc3)no2)CC1)c1ccc(F)cc1 [S32], Cc1ccccc1S(=O)(=O)NCC1CCN(Cc2nc(-c3ccc(C(F)(F)F)cc3)no2)CC1 [S33], COc1ccc(S(=O)(=O)NCC2CCN(Cc3nc(-c4ccc(C(F)(F)F)cc4)no3)CC2)cc1 [S34], O=S(=O)(NCC1CCN(Cc2nc(-c3ccc(C(F)(F)F)cc3)no2)CC1)c1ccc(C(F)(F)F)cc1 [S35], O=S(=O)(NCC1CCN(Cc2nc(-c3ccc(C(F)(F)F)cc3)no2)CC1)c1ccc(OC(F)(F)F)cc1 [S36], CCS(=O)(=O)NC(=O)C1CCN(Cc2nc(-c3ccc(C(F)(F)F)cc3)no2)CC1 [S37], CCCS(=O)(=O)NC(=O)C1CCN(Cc2nc(-c3ccc(C(F)(F)F)cc3)no2)CC1 [S38], O=C(NS(=O)(=O)Cc1ccccc1)C1CCN(Cc2nc(-c3ccc(C(F)(F)F)cc3)no2)CC1 [S39], CC(=O)c1cccc(S(=O)(=O)NC(=O)C2CCN(Cc3nc(-c4ccc(C(F)(F)F)cc4)no3)CC2)c1 [S40], O=C(NS(=O)(=O)c1ccccc1F)C1CCN(Cc2nc(-c3ccc(C(F)(F)F)cc3)no2)CC1 [S41], O=C(NS(=O)(=O)c1cccc(F)c1)C1CCN(Cc2nc(-c3ccc(C(F)(F)F)cc3)no2)CC1 [S42], O=C(NS(=O)(=O)c1ccc(F)cc1)C1CCN(Cc2nc(-c3ccc(C(F)(F)F)cc3)no2)CC1 [S43], O=C(NS(=O)(=O)c1ccccc1Cl)C1CCN(Cc2nc(-c3ccc(C(F)(F)F)cc3)no2)CC1 [S44], O=C(NS(=O)(=O)c1cccc(Cl)c1)C1CCN(Cc2nc(-c3ccc(C(F)(F)F)cc3)no2)CC1 [S45], O=C(NS(=O)(=O)c1ccc(Cl)cc1)C1CCN(Cc2nc(-c3ccc(C(F)(F)F)cc3)no2)CC1 [S46], Cc1ccccc1S(=O)(=O)NC(=O)C1CCN(Cc2nc(-c3ccc(C(F)(F)F)cc3)no2)CC1 [S47], COc1ccc(S(=O)(=O)NC(=O)C2CCN(Cc3nc(-c4ccc(C(F)(F)F)cc4)no3)CC2)cc1 [S48], O=C(NS(=O)(=O)c1ccc(C(F)(F)F)cc1)C1CCN(Cc2nc(-c3ccc(C(F)(F)F)cc3)no2)CC1 [S49], O=C(NS(=O)(=O)c1ccc(OC(F)(F)F)cc1)C1CCN(Cc2nc(-c3ccc(C(F)(F)F)cc3)no2)CC1 [S50], COc1ccc(Br)cc1S(=O)(=O)NC(=O)C1CCN(Cc2nc(-c3ccc(C(F)(F)F)cc3)no2)CC1 [S51], CS(=O)(=O)NC(=O)CC1CCN(Cc2nc(-c3ccc(C(F)(F)F)cc3)no2)CC1 [S52], CCCS(=O)(=O)NC(=O)CC1CCN(Cc2nc(-c3ccc(C(F)(F)F)cc3)no2)CC1 [S53], O=C(CC1CCN(Cc2nc(-c3ccc(C(F)(F)F)cc3)no2)CC1)NS(=O)(=O)Cc1ccccc1 [S54], CC(=O)c1cccc(S(=O)(=O)NC(=O)CC2CCN(Cc3nc(-c4ccc(C(F)(F)F)cc4)no3)CC2)c1 [S55], O=C(CC1CCN(Cc2nc(-c3ccc(C(F)(F)F)cc3)no2)CC1)NS(=O)(=O)c1cccc(F)c1 [S56], O=C(CC1CCN(Cc2nc(-c3ccc(C(F)(F)F)cc3)no2)CC1)NS(=O)(=O)c1ccc(F)cc1 [S57], O=C(CC1CCN(Cc2nc(-c3ccc(C(F)(F)F)cc3)no2)CC1)NS(=O)(=O)c1cccc(Cl)c1 [S58], O=C(CC1CCN(Cc2nc(-c3ccc(C(F)(F)F)cc3)no2)CC1)NS(=O)(=O)c1ccc(Cl)cc1 [S59], Cc1ccccc1S(=O)(=O)NC(=O)CC1CCN(Cc2nc(-c3ccc(C(F)(F)F)cc3)no2)CC1 [S60], COc1ccc(S(=O)(=O)NC(=O)CC2CCN(Cc3nc(-c4ccc(C(F)(F)F)cc4)no3)CC2)cc1 [S61], O=C(CC1CCN(Cc2nc(-c3ccc(C(F)(F)F)cc3)no2)CC1)NS(=O)(=O)c1ccc(C(F)(F)F)cc1 [S62], O=C(CC1CCN(Cc2nc(-c3ccc(C(F)(F)F)cc3)no2)CC1)NS(=O)(=O)c1ccc(OC(F)(F)F)cc1 [S63], COc1ccc(Br)cc1S(=O)(=O)NC(=O)CC1CCN(Cc2nc(-c3ccc(C(F)(F)F)cc3)no2)CC1 [S64], FC(F)(F)c1ccccc1-c1noc(CN2CCCC(CN3CCOCC3)C2)n1 (stereo not drawn) [S65], FC(F)(F)c1cccc(-c2noc(CN3CCCC(CN4CCOCC4)C3)n2)c1 (stereo not drawn) [S66], Cc1ccccc1-c1noc(CN2CCCC(CN3CCOCC3)C2)n1 (stereo not drawn) [S67], Cc1cccc(-c2noc(CN3CCCC(CN4CCOCC4)C3)n2)c1 (stereo not drawn) [S68], Cc1ccc(-c2noc(CN3CCCC(CN4CCOCC4)C3)n2)cc1 (stereo not drawn) [S69], COc1ccccc1-c1noc(CN2CCCC(CN3CCOCC3)C2)n1 (stereo not drawn) [S70], COc1cccc(-c2noc(CN3CCCC(CN4CCOCC4)C3)n2)c1 (stereo not drawn) [S71], COc1ccc(-c2noc(CN3CCCC(CN4CCOCC4)C3)n2)cc1 (stereo not drawn) [S72]
